14 compounds from patent publication US20040097377A1, “Pesticidal spinosyn derivates” (priority 2003, published 2004) can be followed below.

The subject of data set [1] is Tobacco Budworm (Heliothis virescens). The data set can be described thus: Tobacco budworm feeding bioassay (egg and larval stage, 96-well agar diet plate, percent mortality). The class given is in vivo. As to conditions: average of three replicates. The method, then: (§1) Tobacco Budworm (Heliothis virescens) and Beet Armyworm (Spodoptera littoralis) Feeding Bioassay
(§2) To compare insecticidal activities of the test compounds against egg and larval stage Heliothis virescens or Spodoptera littoralis, 50 ul of a 1:1 acetone:water solution was added to each sample and then solublized for one-hour using an orbital shaker. Each of the resulting sample solutions (50, 120, or 250 ppm) was then applied to a well in a 96-well microtiter plate, each well containing an artificial agar-based lepidoptera diet (modified Shorey diet, Southland Products, Lake Village, Ariz.). Each sample was run in triplicate. Plates were allowed to dry for about 4 hours, covered and held for infestation the next day. Each well of the treated plate was infested with 3-5 eggs (0-2 days old) of either H. virescens or S. littoralis. Plates were then covered with cotton batting and sealed with microplate lid. The treated plates were held inverted in an incubator (80+% rh) for six to seven days. Following the incubation period, the plates were graded for percent mortality using a binocular microscope. Data for each sample was reported as the average percent mortality of the three replicates.

Data set [2] has as its system Beet Armyworm (Spodoptera littoralis). The data set can be described thus: Beet armyworm feeding bioassay (egg and larval stage, 96-well agar diet plate, percent mortality). The class given is in vivo. As to conditions: average of three replicates. The method, then: as §1, §2

With `CCC=CC1CCCC(OC2CCC(N(C)C)C(C)O2)C(C)C(=O)C2=CC3C(C=CC4CC(OC5OC(C)C(OC)C(OC)C5OC)CC43)C2CC(=O)O1` (stereo not shown) [Compound 1, for-rham-I, reference compound], the “Tobacco Budworm Diet (6 day) Mortality (%)” value (“Tobacco Budworm Diet … (%)” for short) in data set [1] (Rate 50 ppm) came out at 100%. Further, the “Beet Armyworm Diet (6 day) Mortality (%)” value in data set [2] (Rate 50 ppm) was found to be 100%.
Consider `CCC=CC1CCCC(OC2CCC(N(C)C)C(C)O2)C(C)C(=O)C2=CC3C(C=CC4CC(OC5OC(C)C(OC)C(OC)C5O)CC43)C2CC(=O)O1` (stereo not shown) [Compound 5, for-(2′-O-desmethylrham)-I], for which, in data set [1] (Rate 50 ppm), the “Tobacco Budworm Diet … (%)” value came to 100%. Also, the “Beet Armyworm Diet (6 day) Mortality (%)” value in data set [2] (Rate 50 ppm) is given as 100%.
In the case of `CCC=CC1CCCC(OC2CCC(N(C)C)C(C)O2)C(C)C(=O)C2=CC3C(C=CC4CC(OC5OC(C)C(OC)C(O)C5OC)CC43)C2CC(=O)O1` (stereo not shown) [Compound 6, for-(3′-O-desmethylrham)-I], in data set [1] (Rate 50 ppm), the “Tobacco Budworm Diet … (%)” value turned out to be 100%. Besides, the “Beet Armyworm Diet (6 day) Mortality (%)” value in data set [2] (Rate 50 ppm) came to 100%.
Take `CCC=CC1CCCC(OC2CCC(N(C)C)C(C)O2)C(C)C(=O)C2=CC3C(C=CC4CC(OC5OC(C)C(O)C(OC)C5OC)CC43)C2CC(=O)O1` (stereo not shown) [Compound 32, for-(4′-O-desmethyl-rham)-I]: the “Tobacco Budworm Diet … (%)” value in data set [1] (Rate 50 ppm) is 100%. The “Beet Armyworm Diet (6 day) Mortality (%)” value in data set [2] (Rate 50 ppm) is listed as 100%.
`CCC=CC1CCCC(OC2CCC(N(C)C)C(C)O2)C(C)C(=O)C2=CC3C(C=CC4CC(OC5OC(C)C(O)C(O)C5O)CC43)C2CC(=O)O1` (stereo not shown) [Compound 33, for-(2′,3′,4′-tri-O-desmethyl-rham)-I]: the “Tobacco Budworm Diet … (%)” value in data set [1] (Rate 50 ppm) is 100%. In addition, in data set [2] (Rate 50 ppm), the “Beet Armyworm Diet (6 day) Mortality (%)” value amounted to 100%.
On to `CCC=CC1CCCC(OC2CCC(N(C)C)C(C)O2)C(C)C(=O)C2=CC3C(C=CC4C(O)C(OC5OC(C)C(O)C(OC)C5OC)CC43)C2CC(=O)O1` (stereo not shown) [Compound 34, for-(4′-O-desmethyl-rham)-III], for which the “Tobacco Budworm Diet … (%)” value in data set [1] (Rate 50 ppm) was determined as 100%. In addition, the “Beet Armyworm Diet (6 day) Mortality (%)” value in data set [2] (Rate 50 ppm) came out at 100%.
Regarding `CCC=CC1CCCC(OC2CCC(N(C)C)C(C)O2)C(C)C(=O)C2=CC3C(C=CC4CC(OC5OC(C)C(O)C(O)C5OC)CC43)C2CC(=O)O1` (stereo not shown) [Compound 37], the “Tobacco Budworm Diet … (%)” value in data set [1] (Rate 50 ppm) came out at 100%. Besides, the “Beet Armyworm Diet (6 day) Mortality (%)” value in data set [2] (Rate 50 ppm) worked out at 100%.
On to `CCC=CC1CCCC(OC2CCC(N(C)C)C(C)O2)C(C)C(=O)C2=CC3C(C=CC4C(O)C(OC5OC(C)C(O)C(O)C5OC)CC43)C2CC(=O)O1` (stereo not shown) [Compound 40, for-(3′,4′-di-O-desmethyl-rham) III], for which the “Tobacco Budworm Diet … (%)” value in data set [1] (Rate 50 ppm) was 100%. Further, the “Beet Armyworm Diet (6 day) Mortality (%)” value in data set [2] (Rate 50 ppm) turned out to be 93%.
On to `CCC=CC1CCCC(OC2CCC(N(C)C)C(C)O2)C(C)C(=O)C2=CC3C(C=CC4C(O)C(OC5OC(C)C(OC)C(O)C5OC)CC43)C2CC(=O)O1` (stereo not shown) [Compound 41, for-(3′-O-desmethyl-rham) III], for which the “Tobacco Budworm Diet … (%)” value in data set [1] (Rate 50 ppm) came out at 100%. Moreover, the “Beet Armyworm Diet (6 day) Mortality (%)” value in data set [2] (Rate 50 ppm) came to 100%.
As to `CC=CC1CCCC(OC2CCC(N(C)C)C(C)O2)C(C)C(=O)C2=CC3C(C=CC4CC(OC5OC(C)C(O)C(O)C5OC)CC43)C2CC(=O)O1` (stereo not shown) [Compound 43, 24-desmethyl-for-(3′,4′-di-O-desmethyl-rham)-I], the “Tobacco Budworm Diet … (%)” value in data set [1] (Rate 50 ppm) was found to be 33%. Further, the “Beet Armyworm Diet (6 day) Mortality (%)” value in data set [2] (Rate 50 ppm) turned out to be 80%.
Turning to `CCC=CC1CCCC(OC2CCC(NC)C(C)O2)C(C)C(=O)C2=CC3C(C=CC4CC(OC5OC(C)C(OC)C(O)C5OC)CC43)C2CC(=O)O1` (stereo not shown) [Compound 137, (4″-N-desmethyl-for)-(3′-O-desmethyl-rham)-I], the “Tobacco Budworm Diet … (%)” value in data set [1] (Rate 120 ppm) is recorded as 100%. In addition, in data set [2] (Rate 120 ppm), the “Beet Armyworm Diet (6 day) Mortality (%)” value came to 100%.
For the compound `COC1C(C)OC(OC2CC3C=CC4C5CC(=O)OC(C=CC(C)O)CCCC(OC6CCC(N(C)C)C(C)O6)C(C)C(=O)C5=CC4C3C2)C(OC)C1O` (stereo not shown) [Compound 141, 24-hydroxy-for-(3′-O-desmethyl-rham)-I], in data set [1] (Rate 120 ppm), the “Tobacco Budworm Diet … (%)” value was 100%. For the same compound, the “Beet Armyworm Diet (6 day) Mortality (%)” value in data set [2] (Rate 120 ppm) turned out to be 67%.
As for “for-(3′,4′-di-O-desmethyl-rham)-II [Compound 44]”, the “Tobacco Budworm Diet … (%)” value in data set [1] (Rate 50 ppm) was 100%. For the same compound, the “Beet Armyworm Diet (6 day) Mortality (%)” value in data set [2] (Rate 50 ppm) worked out at 100%.
For “for-(3′,4′-di-O-desmethyl-rham)-IV [Compound 163]”, the “Tobacco Budworm Diet … (%)” value in data set [1] (Rate 120 ppm) is recorded as 100%. Besides, the “Beet Armyworm Diet (6 day) Mortality (%)” value in data set [2] (Rate 120 ppm) came to 100%.
